Test results taken from ChEMBL document CHEMBL1201862, “PubChem BioAssay data set” (2004).
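Five compound concentrations were applied to cells in 96-well plates for 48 hours; endpoints were derived by simple linear interpolation of the resulting dose-response curve. GI50 marks 50% less growth.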 Active and inactive are the calls of the source. Rule as the data show it: active = GI50 up to about 1.1 µM and inactive = higher.

Tests used:
Experiment in all cases: DTP human tumour cell line panel, 48 h
MCF7 = system: MCF7
MDA-MB-435 = system: MDA-MB-435
SK-MEL-28 = system: SK-MEL-28
U-251 = system: U-251
UACC-257 = system: UACC-257
MDA-MB-231 = system: MDA-MB-231
MOLT-4 = system: MOLT-4
ACHN = system: ACHN
SF-268 = system: SF-268
RXF 393 = system: RXF 393
SK-MEL-2 = system: SK-MEL-2
OVCAR-3 = system: OVCAR-3
COLO 205 = system: COLO 205
NCI-H226 = system: NCI-H226
Malme-3M = system: Malme-3M
786-0 = system: 786-0
UO-31 = system: UO-31
HL-60 = system: HL-60
SK-OV-3 = system: SK-OV-3
BT-549 = system: BT-549

O=C(/C=C/c1ccc([N+](=O)[O-])cc1)c1nc2ccccc2[nH]1
GI50 (MCF7): 2.21 µM (inactive)
GI50 (MDA-MB-435): > 72.3 µM (inactive)
GI50 (SK-MEL-28): > 100 µM (inactive)
GI50 (U-251): 13.2 µM (inactive)
GI50 (UACC-257): 9.08 µM (inactive)
GI50 (MDA-MB-231): 26.9 µM (inactive)
GI50 (MOLT-4): 25.2 µM (inactive)
GI50 (ACHN): 74.3 µM (inactive)
GI50 (SF-268): 39.4 µM (inactive)
GI50 (RXF 393): 40.8 µM (inactive)
GI50 (SK-MEL-2): > 77.8 µM (inactive)
GI50 (OVCAR-3): 9.44 µM (inactive)
GI50 (COLO 205): 58.7 µM (inactive)
GI50 (NCI-H226): 1.05 µM (active)
GI50 (Malme-3M): > 100 µM (inactive)
GI50 (786-0): 27.4 µM (inactive)
GI50 (UO-31): > 69.8 µM (inactive)
GI50 (HL-60): 5.2 µM (inactive)
GI50 (SK-OV-3): > 100 µM (inactive)
GI50 (BT-549): > 62.8 µM (inactive)

COc1ccc(/C=C2\C(=O)NC(=O)c3ccccc32)cc1OC
GI50 (MCF7): 56.9 µM (inactive)
GI50 (MDA-MB-435): 30.1 µM (inactive)
GI50 (SK-MEL-28): > 77.3 µM (inactive)
GI50 (U-251): 11.8 µM (inactive)
GI50 (UACC-257): > 100 µM (inactive)
GI50 (MDA-MB-231): 48.2 µM (inactive)
GI50 (MOLT-4): 5.77 µM (inactive)
GI50 (ACHN): 32.2 µM (inactive)
GI50 (SF-268): 18.2 µM (inactive)
GI50 (RXF 393): 12.2 µM (inactive)
GI50 (SK-MEL-2): 45.3 µM (inactive)
GI50 (OVCAR-3): 7.48 µM (inactive)
GI50 (COLO 205): 50.4 µM (inactive)
GI50 (NCI-H226): 49.4 µM (inactive)
GI50 (Malme-3M): > 86.9 µM (inactive)
GI50 (786-0): 16.8 µM (inactive)
GI50 (UO-31): 29.9 µM (inactive)
GI50 (HL-60): 2.68 µM (inactive)
GI50 (SK-OV-3): 36.3 µM (inactive)
GI50 (BT-549): > 100 µM (inactive)

O=C(Nc1ccc(Cl)cc1)c1cc(S(=O)(=O)NC2=Nc3ccc(Cl)cc3C(c3ccccc3)N2)c(SSc2cc(Cl)c(C(=O)Nc3ccc(Cl)cc3)cc2S(=O)(=O)NC2=Nc3ccc(Cl)cc3C(c3ccccc3)N2)cc1Cl (stereo not given)
GI50 (MCF7): > 100 µM (inactive)
GI50 (MDA-MB-435): > 100 µM (inactive)
GI50 (SK-MEL-28): > 100 µM (inactive)
GI50 (U-251): > 100 µM (inactive)
GI50 (UACC-257): > 100 µM (inactive)
GI50 (MDA-MB-231): 24.3 µM (inactive)
GI50 (MOLT-4): 25.9 µM (inactive)
GI50 (ACHN): > 100 µM (inactive)
GI50 (SF-268): > 100 µM (inactive)
GI50 (RXF 393): > 100 µM (inactive)
GI50 (SK-MEL-2): > 100 µM (inactive)
GI50 (OVCAR-3): > 100 µM (inactive)
GI50 (COLO 205): > 100 µM (inactive)
GI50 (NCI-H226): > 100 µM (inactive)
GI50 (Malme-3M): > 100 µM (inactive)
GI50 (786-0): > 100 µM (inactive)
GI50 (UO-31): > 100 µM (inactive)
GI50 (HL-60): 3.37 µM (inactive)
GI50 (SK-OV-3): > 100 µM (inactive)
GI50 (BT-549): > 100 µM (inactive)

COc1cc(C2c3[nH]c4ccccc4c3C[C@H]3COC(=O)N23)cc(OC)c1OC (stereo not given in full)
GI50 (MCF7): 0.0406 µM (active)
GI50 (MDA-MB-435): 0.0213 µM (active)
GI50 (SK-MEL-28): 0.0796 µM (active)
GI50 (U-251): 0.0445 µM (active)
GI50 (UACC-257): 0.0321 µM (active)
GI50 (MDA-MB-231): 0.815 µM (active)
GI50 (MOLT-4): 0.0966 µM (active)
GI50 (ACHN): 0.214 µM (active)
GI50 (SF-268): 0.132 µM (active)
GI50 (RXF 393): < 0.01 µM (active)
GI50 (SK-MEL-2): 0.0655 µM (active)
GI50 (OVCAR-3): 0.0307 µM (active)
GI50 (COLO 205): 0.0687 µM (active)
GI50 (NCI-H226): 0.0574 µM (active)
GI50 (Malme-3M): 0.0453 µM (active)
GI50 (786-0): 0.0304 µM (active)
GI50 (UO-31): 0.0431 µM (active)
GI50 (HL-60): 0.0336 µM (active)
GI50 (SK-OV-3): 0.0366 µM (active)
GI50 (BT-549): 0.163 µM (active)

COc1cc(/C=C2/C[C@H]3[C@@H]4CC=C5C[C@@H](O)CC[C@]5(C)[C@H]4CC[C@]3(C)NC2=O)cc(OC)c1OC
GI50 (MCF7): 11.8 µM (inactive)
GI50 (MDA-MB-435): 20.7 µM (inactive)
GI50 (SK-MEL-28): 29.2 µM (inactive)
GI50 (U-251): 22.5 µM (inactive)
GI50 (UACC-257): 27.5 µM (inactive)
GI50 (MDA-MB-231): 20.1 µM (inactive)
GI50 (MOLT-4): 21.6 µM (inactive)
GI50 (ACHN): 18.9 µM (inactive)
GI50 (SF-268): 9.12 µM (inactive)
GI50 (RXF 393): 16 µM (inactive)
GI50 (SK-MEL-2): 22 µM (inactive)
GI50 (OVCAR-3): 28.7 µM (inactive)
GI50 (COLO 205): > 38.9 µM (inactive)
GI50 (NCI-H226): 22 µM (inactive)
GI50 (Malme-3M): 13.3 µM (inactive)
GI50 (786-0): 17.7 µM (inactive)
GI50 (UO-31): 9.68 µM (inactive)
GI50 (HL-60): 0.405 µM (active)
GI50 (SK-OV-3): 31.6 µM (inactive)
GI50 (BT-549): 15.2 µM (inactive)
